According to article PMC4942819 (Scientific Reports, 2016):
Values after ≈ are worked out from the molar mass of the structure shown.

tested on: H37Rv; assay: microbe, parasite or virus in culture; assay type: cell-based, Mycobacterium tuberculosis; conditions: Mycobacterium tuberculosis, H37RV, read-out: MIC, strain H37Rv

SMILES	MIC [µg/mL]
O=[N+]([O-])c1cc(C(F)(F)F)cc2c(=S)nc(N3CCC4(CC3)OCCO4)sc12 [SKLB-TB1001, 8-nitro-2-(1,4-dioxa-8-azaspiro[4.5]decan-8-yl)-6-(trifluoromethyl)-4H-benzo[e][1,3]thiazine-4-thione]	< 0.0156
NCC[C@H](O)C(=O)N[C@@H]1C[C@H](N)[C@@H](O[C@H]2O[C@H](CN)[C@@H](O)[C@H](O)[C@H]2O)[C@H](O)[C@H]1O[C@H]1O[C@H](CO)[C@@H](O)[C@H](N)[C@H]1O [AMK, amikacin]	0.5 (≈ 0.854 µM)
CO[C@H]1/C=C/O[C@@]2(C)Oc3c(C)c(O)c4c(O)c(c(/C=N/N5CCN(C)CC5)c(O)c4c3C2=O)NC(=O)/C(C)=C\C=C\[C@H](C)[C@H](O)[C@@H](C)[C@@H](O)[C@@H](C)[C@H](OC(C)=O)[C@@H]1C [RMP, rifampicin]	< 0.03
COc1c(N2C[C@@H]3CCCN[C@@H]3C2)c(F)cc2c(=O)c(C(=O)O)cn(C3CC3)c12 [MOX, moxifloxacin]	0.06 (≈ 0.149 µM)
CC[C@@H](CO)NCCN[C@@H](CC)CO [EMB, ethambutol]	1 (≈ 4.89 µM)
NNC(=O)c1ccncc1 [INH, isoniazid]	0.03 (≈ 0.219 µM)
CC1COc2c(N3CCN(C)CC3)c(F)cc3c(=O)c(C(=O)O)cn1c23 (stereo not shown) [OFLX, ofloxacin]	0.5 (≈ 1.38 µM)
[H]/N=C(/N)N[C@H]1[C@H](O)[C@@H](O)[C@H](O[C@@H]2O[C@@H](C)[C@](O)(C=O)[C@H]2O[C@@H]2O[C@@H](CO)[C@H](O)[C@@H](O)[C@@H]2NC)[C@@H](N/C(N)=N\[H])[C@@H]1O [SM, streptomycin]	1 (≈ 1.72 µM)

same assay, conditions: Table 2 prints no unit; test range in method b43 in μg/mL

SMILES	MIC, strain H37Rv [µg/mL]
C[C@H]1COc2c(N3CCN(C)CC3)c(F)cc3c(=O)c(C(=O)O)cn1c23 [LVFX, levo-ofloxacin]	0.25 (≈ 0.692 µM)
NC[C@H]1O[C@H](O[C@H]2[C@H](O)[C@@H](O[C@H]3O[C@H](CO)[C@@H](O)[C@H](N)[C@H]3O)[C@H](N)C[C@@H]2N)[C@H](O)[C@@H](O)[C@@H]1O [KM, kanamycin]	1 (≈ 2.06 µM)
